In publication PMC8621570, “Mechanistic Studies of Antibiotic Adjuvants Reducing Kidney’s Bacterial Loads upon Systemic Monotherapy” (Pharmaceutics, 2021):

Legend:
[1] = Hydrophobicity by reversed phase HPLC elution; type: physicochemical; conditions: % acetonitrile required for elution in reversed phase HPLC, C18 column; rounded to nearest whole number
[2] = Peptide self-assembly (critical aggregation concentration) by static light scattering; type: physicochemical; conditions: light scattering in PBS
Method: (§1) Peptide self-assembly was determined by static light scattering measurements as described. Hemolysis was determined by measuring hemoglobin leakage from washed human RBCs, as described. Minimal inhibitory concentration (MIC) was determined using the microdilution assay, as described. Bactericidal kinetics were determined by mixing bacteria with rifampin, OAC, or their combinations, as described. Data were obtained from three independent assays performed in duplicate.

[3] = test system: 12 GNB strains; type: cell-based; conditions: OD measurements, mean of 12 GNB strains
Method: (§2) Bacteria:Escherichia coli strains: 25922 and 35218 (ATCC, Manassas, VA, USA), 14182 (clinical isolate), Ag100 and Ag100A [34] (ΔacrAB) are two K-12 isogenic mutantsand the engineered mutant ML-35p. Additional ESKAPE species tested: Klebsiella pneumoniae strains 1287 and 224 (clinical isolates), Acinetobacter baumannii ATCC strain 19606, Pseudomonas aeruginosa ATCC strains 9027 and 27853. Bacteria were grown in Luria–Bertani (LB) broth (0.5% NaCl, 0.5% yeast extract, 1% tryptone, pH = 7), except for E. coli ML-35p that was grown in tryptic-soy broth.
as §1

[4] = test system: E. coli strain AG100; assay: microbe, parasite or virus in culture; type: cell-based, Escherichia coli; conditions: strain AG100
Method: as §2, §1
(§3) The wild-type E. coli strain AG100 and its isogenic ΔacrAB mutant AG100A were used to determine the MIC of OACs and of two known acrAB-TolC substrates: the AMP LL-37 and the macrolide antibiotic erythromycin that are normally inefficient against GNB.

[5] = test system: E. coli ΔacrAB mutant AG100A; assay: microbe, parasite or virus in culture; type: cell-based, Escherichia coli; conditions: isogenic ΔacrAB mutant AG100A
Method: as §2, §1, §3

[6] = test system: E. coli 25922; assay: Dissipation of the transmembrane potential, DiSC3(5); type: cell-based, Escherichia coli; conditions: 10 μM, compared to positive control 50 µM C12K-7α8
Method: Inner Membrane Damages: Damage inflicted to the cytoplasmic membrane was assessed using 3,3-dipropylthiadicarbocyanine iodide (DiSC3(5)), a lipophilic potentiometric dye that changes its fluorescence intensity in response to changes in transmembrane potential. Bacteria were grown overnight, diluted and at mid-log were adjusted to O.D = 0.1 (600 nm), centrifuged (10,000 RCF, 5 min), and re-suspended in the assay buffer (5 mM HEPES containing 20 mM glucose, 0.2 mM EDTA, and 50 mM KCl). Then, DiSC3(5) dye was added (to final concentration 4 μM) and incubated at 37 °C for 60 min in the dark to allow dye uptake. An aliquot (180 μL) of the bacterial suspension was placed in a 96-well plate and fluorescence was monitored until baseline stabilization (excitation, 622 nm; emission, 670 nm, monitored using Synergy HT, BioTek Instruments, Winooski, VT, USA). […] Fluorescence was immediately monitored continuously for 30 min. […]
Figure 7 Evidence for proton and ATP leakage across the inner membrane. (a) Dissipation of the transmembrane potential in E. coli 25922 (8.8 ± 1.8 × 10^7 CFU/mL) pre-incubated with DiSC3(5) as determined 15 min after exposure to C14OOc12O (orange) or to C14(ω5)OOc10O (green). […] (b) Intracellular ATP concentrations were determined after 1 h incubation with C14(ω5)OOc10O (green) or C14OOc12O (orange) using E. coli 25922 at 5 × 10^7 CFU/mL. RLU, relative luminescence units.

[7] = Organ bio-distribution; type: in vivo, mouse; conditions: 3 h post single S.C 12.5 mg/kg, ICR mice, organ homogenates, LC-MS
Method: C14(ω5)OOc10O was subjected to preliminary pharmacokinetics (PK) analysis to determine its plasma concentrations or organ bio-distribution following S.C administration to non-neutropenic pathogen-free mice. OAC quantification was performed by LC-MS as follows: blood was drawn at various time intervals and plasma was separated by centrifugation (5000 RCF, 10 min). Organs were excised and homogenized. Then, OAC was extracted from both plasma and organ homogenates by incubation with 50% acetonitrile: 50% methanol at room temperature with shaking for 30 min, and subsequent centrifugation (5000 RCF, 10 min). Supernatants were diluted two-fold in distilled water and analyzed by LC-MS (ULC ultimate 3000 DIONEX, MS BRUKER Maxis impact). Quantification was based on standard calibration curves, prepared by spiking fresh mice plasma (for PK) or water (for organ bio-distribution) with various amounts of the tested OAC (final concentrations from 2.5 to 50 µg/mL) and subjected to an identical procedure as described above.
Figure 10 Systemic efficacy studies using mouse infection models. (a,b) Data points represent colony forming unit (CFU) counts harvested from infected mice (8 and 10 mice per group, respectively). […]

CCCCC=CCCCCCCCC(=O)N[C@@H](CCCN)C(=O)N[C@@H](CCCN)C(=O)NCCCCCCCCCC(=O)N[C@@H](CCCN)C(N)=O [C14(ω5)OOc10O]
H, hydrophobicity [1]: 50%
CAC, critical aggregation concentration [2]: >100 µM
MIC, LB medium [3]: > 50 µM
MIC [4]: 25 µM
MIC, Ag100A [5]: 6.2 µM
Depolarization (dissipation of the transmembrane potential) [6]: only partial depolarization
Concentration in liver and kidneys relative to lymph nodes, thighs, bladder, brain or spleen [7]: at least 3 times
